Laboratory results: patent US10913714B2, “Pyrrole sulfonyl derivative, preparation method and medical use thereof” (JIANGSU CAREPHAR PHARMACEUTICAL CO., LTD, priority 2015, dated 2021)
Structures can show the parent of a compound that is named as a salt. Marks after values point to notes of the source that are not given here.

Assays:
[1] = test system: gastric acid secretion induced by histamine; assay: Gastric acid secretion induced by histamine in pylorus-ligated rats; format: in vivo; settings: SD rat; for Total acid content: 2 mg/kg by gavage 1 h before histamine, total acid of 3 h; for Acid inhibiting rate %: 2 mg/kg by gavage, compared with model control
Source text: Test Case 3: Studies on the Effect of EXP 1, TAK-438 and EXP 14 on Gastric Acid Secretion Induced by Histamine Experimental Materials 1) Animals
SD rat, class SPF, male, 180-220 g; provided by Zhejiang Experimental Animal Center; production permit no.: SCXK (Z) 2014-0001.
Compound EXP 1, dissolved with a small amount of acetic acid (about 1.10N EXP 1), 0.9% sodium chloride solution to a clear liquid with needed concentration before use.
>Compound TAK-438, dissolved with 0.9% sodium chloride solution to a clear liquid with needed concentration before use.
Compound EXP 14, dissolved with a small amount of acetic acid (about 1.10N EXP 14), 0.9% sodium chloride solution to a clear liquid with needed concentration before use.
Fetching 60 SD rats of class SPF with a weight of 180-220 g; dividing the rats into 5 groups as per weights randomly, including Group EXP 1 (2 mg/kg), Group TAK-438 (2 mg/kg, as per free alkali), Group EXP 14 (2 mg/kg), Group negative control (normal saline of equal volume) and Group model control (normal saline of equal volume); 12 rats per group. Absolute diet for 24 h, water is allowed. After 24 h, administrating drugs to the tested compound groups A, B and C by gavage with a volume of 1 ml/100 g; each group is administered once; the negative control and model negative control groups are administrated by gavage with normal saline of equal volume. Narcotizing the rat with 300 mg/kg of chloral hydrate (1 ml/100 g) and fixing it onto the rat board; cutting to open the abdominal wall along the medioventral line from the mucronate cartilage with an incision of 2-3 cm; slightly pushing the left costal margin upward to expose the stomach in the incision. Ligaturing the pylorus thereunder (leave alone the adjacent blood vessels) and then suturing the abdominal incision. Giving histamine dihydrochloride (30 mg/10 m/kg) hypodermically to the rat 1 h after the tested compound or normal saline are administrated. Choking the rat to death with excessive CO2 3 h after the histamine is given; taking out the stomach and collecting the gastric contents for centrifugation at 3000 rpm/min; adjusting the PH value of the acid fluid to 7.0 with 0.1 mol/L of NaOH titration and then calculating the total acid content of the 3 h. Refer to Table 3 for results.

[2] = biological target: T1, H^+/K^+-ATPase (Oryctolagus cuniculus, UniProt P27112); assay: Inhibition of H+/K+-ATPase enzymatic activity (rabbit gastric mucosal microsomes, malachite green); format: biochemical; settings: pH 6.5, 37° C. 30 min, read-out: The median inhibitory concentration (IC50) of the compound to the activity of H^+/K^+-ATPase
T1 construct: collecting the middle layer (H^+/K^+-ATPase enriched gastric membranes) into a clean centrifugal tube; from tissue; host or cells: rabbit stomach (gastric mucosal microsomes, sucrose/Ficoll gradient centrifugation)
T1 sequence (P27112 whole entry): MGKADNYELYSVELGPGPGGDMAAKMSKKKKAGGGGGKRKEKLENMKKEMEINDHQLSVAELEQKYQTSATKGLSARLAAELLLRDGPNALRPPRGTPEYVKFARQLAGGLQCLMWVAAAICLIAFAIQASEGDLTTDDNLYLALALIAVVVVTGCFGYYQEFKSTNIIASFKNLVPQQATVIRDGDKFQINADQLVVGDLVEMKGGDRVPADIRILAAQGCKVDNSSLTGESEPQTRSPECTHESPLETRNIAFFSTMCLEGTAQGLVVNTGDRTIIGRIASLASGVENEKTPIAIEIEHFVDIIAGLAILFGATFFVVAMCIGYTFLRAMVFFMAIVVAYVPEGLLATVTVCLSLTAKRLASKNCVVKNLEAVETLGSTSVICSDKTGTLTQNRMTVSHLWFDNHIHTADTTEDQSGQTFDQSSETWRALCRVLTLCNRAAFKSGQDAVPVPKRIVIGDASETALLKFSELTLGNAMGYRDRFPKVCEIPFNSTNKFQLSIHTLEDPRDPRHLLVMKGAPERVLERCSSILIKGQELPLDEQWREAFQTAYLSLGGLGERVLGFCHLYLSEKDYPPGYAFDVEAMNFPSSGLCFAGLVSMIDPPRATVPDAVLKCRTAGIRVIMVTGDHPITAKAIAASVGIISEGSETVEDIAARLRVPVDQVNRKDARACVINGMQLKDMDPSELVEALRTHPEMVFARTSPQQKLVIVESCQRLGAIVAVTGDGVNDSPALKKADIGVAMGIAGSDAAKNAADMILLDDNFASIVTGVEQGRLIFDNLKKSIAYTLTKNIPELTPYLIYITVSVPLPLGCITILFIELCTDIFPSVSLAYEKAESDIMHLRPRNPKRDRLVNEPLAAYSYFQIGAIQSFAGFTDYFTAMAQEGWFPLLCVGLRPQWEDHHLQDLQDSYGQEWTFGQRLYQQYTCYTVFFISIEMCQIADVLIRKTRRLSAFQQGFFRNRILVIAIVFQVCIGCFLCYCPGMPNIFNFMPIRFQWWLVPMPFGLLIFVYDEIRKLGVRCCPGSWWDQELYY
T1 sequence (P18597 whole entry partner): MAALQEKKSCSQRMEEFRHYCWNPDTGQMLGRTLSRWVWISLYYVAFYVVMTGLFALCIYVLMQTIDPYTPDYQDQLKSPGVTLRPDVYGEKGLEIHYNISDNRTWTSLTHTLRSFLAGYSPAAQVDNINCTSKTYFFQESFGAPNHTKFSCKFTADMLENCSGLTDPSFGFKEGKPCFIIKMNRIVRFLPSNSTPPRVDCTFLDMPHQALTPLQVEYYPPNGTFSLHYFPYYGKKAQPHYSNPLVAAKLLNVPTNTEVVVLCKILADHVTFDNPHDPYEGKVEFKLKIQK
Source text: Biological Evaluation on H^+/K^+-ATPase
The following screening assays in vitro are used to evaluate the inhibiting effect of the compound of the Invention on the enzymatic activity of H^+/K^+-ATPase. Experimental materials and instruments are as follows:
1) Rabbit gastric mucosal microsomes (enriched H^+/K^+-ATPase; extracted by the Applicant)
2) Buffer solution: 50 mmol/L HEPEs-Tris, pH=6.5, 5 mmol/L magnesium chloride, 10 μmol/L valinomycin;
3) Buffer solution: 50 mmol/L HEPEs-Tris, pH=6.5, 5 mmol/L magnesium chloride, 10 μmol/L valinomycin, 5 mmol/L potassium chloride;
4) ATP: diluting ATP to 5 mM with buffer solution 1;
5) Malachite green solution: dissolving 0.12% of malachite green in 2.5 mol/L of sulfuric acid; mixing 7.5% (V/V) of ammonium molybdate and 11% of Tween 20(V/V) in a proportion of 100:25:2;
6) The method for extracting rabbit gastric mucosal microsomes (enriched H^+/K^+-ATPase) is sucrose gradient centrifugation, i.e., washing the rabbit stomach with tap water and 3M NaCl solution respectively and removing the surface moisture with filter paper; adding the pre-cooled buffer solution (4 ml/g tissue) for homogenation in a tissue homogenizer for 2-5 min; removing the large tissue particles in a way of centrifugation (600 g, 10 mm) if any after homogenation; transferring the supernatant to a clean centrifugal tube for centrifugation for 30 min at 2000 g; then transferring the supernatant to a clean centrifugal tube for further centrifugation for 90 min at 100000 g; collecting the sediment; suspending the sediment in the homogenate and blowing it to be uniform; measuring the protein concentration with Bradford method; adjusting the concentration to 10 mg/ml; adding 7.5% Ficoll demixing fluid in an equal proportion for centrifugation for 60 min at 100000 g; collecting the middle layer (H^+/K^+-ATPase enriched gastric membranes) into a clean centrifugal tube; diluting it with 4-5 times of homogenate for further centrifugation for 90 min at 100000 g; collecting the sediment; suspending the sediment in the homogenate for homogenation with a glass homogenizer; measuring the protein concentration with Bradford method and adjusting the concentration to 22.5 mg/ml; freezing it under −80° C. for standby. Experimental Process:
Adding 5 μL of gastric mucosal microsomes (H^+/K^+-ATPase) in 45 µL of buffer solution 2; adding 5 μL of the compound solution; adding 5 μL 5 mM of ATP to start the reaction for pre-reaction at 37° C. for 30 min; adding 15 μL of malachite green solution to terminate the reaction; balancing at ambient temperature for 20 min; reading the value of absorbed light at 620 nm.
Meanwhile, conducting another reaction with the same volume without potassium chloride for background, which will be subtracted when calculating the enzymatic activity.
The value of Compound IC50 is calculated through the inhibition ratios at different concentrations.

CNCc1cc(-c2ccccc2F)n(S(=O)(=O)c2cccc(OCCCOC)c2)c1 [EXP 1, 1-(5-(2-fluorobenzene)-1-((3-(3-methoxypropoxy)phenyl)sulfonyl)-1H-pyrrole-3-yl)-N-methyl methylamine]
Total acid content [1]: 0.49 ± 0.12** 10^−4 mol
Acid inhibiting rate % [1]: 55.4%
IC50 [2]: < 100 nM

CNCc1cc(-c2ccccc2F)n(S(=O)(=O)c2cccnc2)c1 [TAK-438, 5-(2-fluorophenyl)-N-methyl-1-(3-pyridylsulfonyl)-1H-pyrrole-3-methamine fumarate]
Total acid content [1]: 0.52 ± 0.10** 10^−4 mol
Acid inhibiting rate % [1]: 52.3%
IC50 [2]: < 100 nM
